According to patent US8461183B2, “PPAR agonist compounds, preparation and uses” (Genfit, priority 2008, dated 2013):
pEC50: −log10 of the molar value.

Experiments:
[1] = tested on: ApoE2/E2 dyslipidemic mouse; test: Plasma lipids in the ApoE2/E2 dyslipidemic mouse; format: in vivo; conditions: 7 days
Protocol: The hypolipemic properties of the compounds according to the invention were evaluated in vivo by determination of plasma lipids and by analysis of gene expression of targets genes of PPARs in the liver after oral treatment of a dyslipidemic mouse with the compounds according to the invention.
The murine model used is the mouse of type ApoE2/E2, a mouse transgenic for the E2 isoform of human apolipoprotein E (Sullivan P M et al., 1998). In humans, this apolipoprotein, a constituent of low and very low density lipoproteins (LDL-VLDL), occurs in three isoforms E2, E3 and E4. […] Because of this, clearance of VLDLs is almost zero. This leads to accumulation of […] and mixed, so-called type III hyperlipidemia (raised cholesterol and triglycerides).
PPARα regulates the expression of genes involved in lipid transport (apolipoproteins such as Apo AI, Apo AII and Apo CIII, membrane transporters such as FAT) or the catabolism of lipids (ACO, CPT-I or CPT-II, enzymes of β-oxidation of fatty acids). Treatment with PPARα activators is therefore reflected, both in humans and in rodents, in a decrease in levels of circulating triglycerides. Measurement of plasma lipids after treatment with the compounds according to the invention is therefore an indicator of the PPARα agonist character and therefore of the hypolipemic action of the compounds according to the invention.
Apo E2/E2 transgenic mice were kept in a cycle of light and darkness of 12 hours/12 hours at a constant temperature of 20±3° C. After acclimation for one week, the mice were weighed and put into groups of 6 animals selected in such a way that the distribution of their bodyweight and of their plasma lipid values determined first before the experiment are uniform. The compounds tested were suspended in carboxymethylcellulose (Sigma C4888) and administered at the chosen dose by stomach tube, at a rate of once a day for 7 days at the chosen dose. The animals had free access to water and food. At the end of the experiment, the animals were anesthetized after fasting for 4 hours, a blood sample was taken on anticoagulant (EDTA), then the mice were weighed and euthanased. The plasma was separated by centrifugation at 3000 rev/min for 20 minutes, and the samples were stored at +4° C. for the biochemical assays. Samples of liver were taken and frozen immediately in liquid nitrogen and then stored at −80° C. for subsequent analyses.
The plasma concentrations of lipids (total cholesterol, HDL-cholesterol, and free fatty acids) were measured by enzyme assays (bioMérieux-Lyons-France) according to the supplier's recommendations.

[2] = target: T1, hPPARγ (Homo sapiens, UniProt P37231); test: Gal4-hPPARγ chimera transactivation (luciferase) in COS-7 cells; format: cell-based; conditions: 24 hours; for pEC50: luciferase, read-out: PPARγ EC50; for Emax: relative to maximum activation obtained with rosiglitazone, read-out: PPARγ TOP % (maximum activation)
T1 construct: corresponding to the DEF domains (structural elements of the promoter of the PPARs: D=hinge, EF=ligand fixation domain and AF2 fixation site); expressed in transfected cells; host or cells: COS-7 (monkey kidney fibroblasts)
T1 sequence (P37231 238-503 limits assumed): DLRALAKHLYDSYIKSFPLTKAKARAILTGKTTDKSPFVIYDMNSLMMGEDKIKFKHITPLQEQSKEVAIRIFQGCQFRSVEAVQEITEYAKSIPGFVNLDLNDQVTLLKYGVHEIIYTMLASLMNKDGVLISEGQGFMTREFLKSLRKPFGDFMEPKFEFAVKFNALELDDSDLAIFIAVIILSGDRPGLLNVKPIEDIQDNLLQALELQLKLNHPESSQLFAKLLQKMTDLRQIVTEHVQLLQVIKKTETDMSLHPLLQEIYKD
How it was run: (§1)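 COS-7 cells transfected with Gal4-DBD fused to human PPARγ or PPARδ DEF (hinge/ligand-binding) domain plus Gal4(RE)_TkpGL3 luciferase reporter (1:10).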

[3] = target: T2, hPPARδ (Homo sapiens, UniProt Q03181); test: Gal4-hPPARδ chimera transactivation (luciferase) in COS-7 cells; format: cell-based; conditions: COS-7 cells, Gal4-hPPARδ, 24 hours; for pEC50: luciferase, read-out: PPARδ EC50; for Emax: relative to maximum activation obtained with GW501516, read-out: PPARδ TOP % (maximum activation)
T2 construct: corresponding to the DEF domains (structural elements of the promoter of the PPARs: D=hinge, EF=ligand fixation domain and AF2 fixation site); expressed in transfected cells; host or cells: COS-7 (monkey kidney fibroblasts)
T2 sequence (Q03181 211-439 limits assumed): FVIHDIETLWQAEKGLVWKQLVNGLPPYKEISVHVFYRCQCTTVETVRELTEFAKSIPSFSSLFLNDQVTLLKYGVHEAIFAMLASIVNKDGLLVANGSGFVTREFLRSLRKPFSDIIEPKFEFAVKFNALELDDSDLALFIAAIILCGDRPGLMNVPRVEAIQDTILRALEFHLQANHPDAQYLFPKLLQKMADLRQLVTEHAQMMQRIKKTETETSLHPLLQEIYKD
How it was run: as §1

| pEC50 [2] | Emax [2] | pEC50 [3] | Emax [3] | Structure (SMILES) | plasma level of HDL-cholesterol ([1]; 10 and 100 mpk oral) | plasma total cholesterol ([1]; 10 and 100 mpk oral) | plasma level of free fatty acids ([1]; 100 mpk oral) | plasma total cholesterol ([1]; 100 mpk oral) |
| --- | --- | --- | --- | --- | --- | --- | --- | --- |
| 4.91 | 39.1% | 5.70 | 109% | COc1nc(-c2ccccc2)ccc1COc1ccc(OCC(=O)O)cc1 [Cpd 2, 2-(4-((2-methoxy-6-phenylpyridin-3-yl)methoxy)phenoxy)ethanoic acid] | dose-dependent increase | decreased | – | – |
| 4.75 | 70.5% | 5.06 | 115% | COc1nc(-c2ccccc2)ccc1CNc1ccc(OCC(=O)O)cc1 [Cpd 4, 2-(4-(((2-methoxy-6-phenylpyridin-3yl)methyl)amino)phenoxy)ethanoic acid] | dose-dependent increase | decreased | – | – |
| 5.89 | 87% | 5.50 | 95.1% | COc1nc(-c2ccccc2)ccc1CNc1ccc(CCC(=O)O)cc1 [Cpd 19, 3-(4-(((2-methoxy-6-phenylpyridin-3-yl)methyl)amino)phenyl)propanoic acid] | – | – | decrease | decreased |
| 5.35 | 65.7% | 6.11 | 94.1% | COc1nc(-c2ccc(C(F)(F)F)cc2)ccc1COc1ccc(OCC(=O)O)cc1 [Cpd 24, 2-(4-((2-methoxy-6-(4-(trifluoromethyl)phenyl)pyridin-3-yl)methoxy)-phenoxy)ethanoic acid] | – | – | – | – |
